Consider 34 compounds from patent US20240279205A1, “NOVEL BENZIMIDAZOLE DERIVATIVE” (Carna Biosciences, Inc., priority 2020, published 2024).

Counter-ions that a name gives are not always drawn.

T1 sequence (Q86WV6 whole entry H232R): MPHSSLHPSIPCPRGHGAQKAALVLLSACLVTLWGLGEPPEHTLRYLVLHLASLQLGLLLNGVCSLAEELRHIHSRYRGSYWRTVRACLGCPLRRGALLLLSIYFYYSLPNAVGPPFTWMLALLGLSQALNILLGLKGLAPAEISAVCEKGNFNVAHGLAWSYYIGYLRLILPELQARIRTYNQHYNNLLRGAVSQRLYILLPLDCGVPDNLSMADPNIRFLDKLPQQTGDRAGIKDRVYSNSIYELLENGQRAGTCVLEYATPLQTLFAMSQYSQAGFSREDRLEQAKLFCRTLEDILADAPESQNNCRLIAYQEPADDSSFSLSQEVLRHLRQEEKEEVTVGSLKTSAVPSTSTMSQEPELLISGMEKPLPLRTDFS

One test concerns the target T1, human STING (hSTING) (Homo sapiens, UniProt Q86WV6).
T1 construct: host or cells: HEK-Blue ISG cells (HEK293-derived SEAP reporter line)
The test is described as follows: Inhibition test of intracellular human STING (hSTING) pathway using SEAP reporter cells (HEK-Blue ISG), stimulation with Compound 3. As to conditions: Compound 3 10 nM stimulation, 21 hours. The test is classed as cell-based. Also on record: hSTING inhibitory activity: scale not given here. An outline of the steps: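 HEK-Blue ISG cells with IRF-inducible SEAP reporter, pretreated 1 h with compound (final 0.1 to 10 μM), then stimulated with Compound 3 (final 10 nM) for 21 h at 37° C. Supernatant SEAP measured colorimetrically; IC50 from log-concentration regression, normalized to stimulated (100%) and unstimulated (0%) controls.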
As for `CN(c1ccccc1)S(=O)(=O)c1ccc2[nH]c(Nc3c[nH]c4ccc(Cl)nc34)nc2c1` [Embodiment 75, 2-[(5-Chloro-1H-pyrrolo[3,2-b]pyridin-3-yl)amino]-N-methyl-N-phenyl-1H-benzo[d]imidazole-5-sulfonamide], the hSTING inhibitory activity entry is given as “* *”.

For `Fc1cc2[nH]c(Nc3c[nH]c4ccc(Cl)nc34)nc2cc1Oc1ccccc1` [Embodiment 193, N-(5-Chloro-1H-pyrrolo[3,2-b]pyridin-3-yl)-6-fluoro-5-phenoxy-1H-benzo[d]imidazol-2-amine], the hSTING inhibitory activity entry is recorded as “* *”.

Consider `Cn1cc(-c2ccnc3c(Nc4nc5cc(Oc6ccccc6)ccc5[nH]4)c[nH]c23)cn1` [Embodiment 71, N-[7-(1-methyl-1H-pyrazol-4-yl)-1H-pyrrolo[3,2-b]pyridin-3-yl]-5-phenoxy-1H-benzo[d]imidazole-2-amine formate], for which the hSTING inhibitory activity entry is “* *”.

For `CS(=O)(=O)c1cccc(Oc2ccc3[nH]c(Nc4c[nH]c5ccc(Br)nc45)nc3c2)c1` [Embodiment 67, N-(5-bromo-1H-pyrrolo[3,2-b]pyridin-3-yl)-5-[3-(methylsulfonyl)phenoxy]-1H-benzo[d]imidazol-2-amine], the hSTING inhibitory activity entry is listed as “* *”.

Regarding `Cc1ccc2[nH]cc(Nc3nc4cc(C(F)(F)F)cc(F)c4n3N(C)C)c2c1` [Embodiment 280, 7-fluoro-N1,N1-dimethyl-N2-(5-methyl-1H-indol-3-yl)-5-(trifluoromethyl)-1H-benzo[d]imidazole-1,2-diamine], the hSTING inhibitory activity entry is listed as “* * *”.

As to `Cn1c(Nc2c[nH]c3ccc(Cl)cc23)nc2cc(C(F)(F)F)c(F)c(F)c21` [Embodiment 274, N-(5-Chloro-1H-indol-3-yl)-6,7-difluoro-1-methyl-5-(trifluoromethyl)-1H-benzo[d]imidazol-2-amine], the hSTING inhibitory activity entry is “* * *”.

Take `Brc1ccc2[nH]cc(Nc3nc4cc(OCc5ccccc5)ccc4[nH]3)c2n1` [Embodiment 69, 5-(benzyloxy)-N-(5-bromo-1H-pyrrolo[3,2-b]pyridin-3-yl)-1H-benzo[d]imidazol-2-amine]: the hSTING inhibitory activity result is “* *”.

Take `C1=C(c2ccnc3c(Nc4nc5cc(Oc6ccccc6)ccc5[nH]4)c[nH]c23)CCCC1` [Embodiment 162, N-[7-(Cyclohex-1-en-1-yl)-1H-pyrrolo[3,2-b]pyridin-3-yl]-5-phenoxy-1H-benzo[d]imidazole-2-amine]: the hSTING inhibitory activity entry is listed as “* *”.

As to `CN(C)n1c(Nc2c[nH]c3ccc(F)c(F)c23)nc2cc(C(F)(F)F)cc(F)c21` [Embodiment 278, N2-(4,5-difluoro-1H-indol-3-yl)-7-fluoro-N1,N1-dimethyl-5-(trifluoromethyl)-1H-benzo[d] imidazole-1,2-diamine], the hSTING inhibitory activity result is “* *”.

Take `c1ccc(Oc2ccc3[nH]c(Nc4c[nH]c5cc(-c6ccccc6)cnc45)nc3c2)cc1` [Embodiment 51, 5-phenoxy-N-(6-phenyl-1H-pyrrolo[3,2-b]pyridin-3-yl)-1H-benzo[d]imidazol-2-amine]: the hSTING inhibitory activity entry is reported as “* *”.

Staying with this test, now noted: Compound 3 10 nM stimulation, 21 hours, read-out: hSTING inhibitory activity.
With `Brc1cnc2c(Nc3nc4cc(Oc5ccccc5)ccc4[nH]3)c[nH]c2c1` [Embodiment 49, N-(6-bromo-1H-pyrrolo[3,2-b]pyridin-3-yl)-5-phenoxy-1H-benzo[d]imidazol-2-amine], the IC50 was in the range of 1 to 10 µM.

Take `CS(=O)(=O)CCn1c(Nc2c[nH]c3ccc(Cl)cc23)nc2cc(C(F)(F)F)ccc21` [Embodiment 230, N-(5-Chloro-1H-indol-3-yl)-1-[2-(methylsulfonyl)ethyl]-5-(trifluoromethyl)-1H-benzo[d] imidazol-2-amine]: the IC50 fell in the range of 1 to 10 µM.

`CN(C)CC#Cc1ccc2[nH]c(Nc3c[nH]c4ccc(Cl)nc34)nc2c1` [Embodiment 146, N-(5-Chloro-1H-pyrrolo[3,2-b]pyridin-3-yl)-5-[3-(dimethylamino)prop-1-yn-1-yl]-1H-benzo[d] Imidazol-2-amine]: the IC50 is at least 10 µM.

For the compound `C#CCNC(=O)c1ccc2[nH]cc(Nc3nc4cc(Oc5ccccc5)ccc4[nH]3)c2c1` [Example 29, 3-[(5-phenoxy-1H-benzo[d]imidazol-2-yl)amino]-N-(prop-2-yn-1-yl)-1H-indole-5-carboxamide], the IC50 is at least 10 µM.

`CN(C)c1ccnc2c(Nc3nc4cc(Oc5ccccc5)ccc4[nH]3)c[nH]c12` [Embodiment 70, N7,N7-dimethyl-N3-(5-phenoxy-1H-benzo[d]imidazol-2-yl)-1H-pyrrolo[3,2-b]pyridine-3,7-diamine formate]: the IC50 is at least 10 µM.

As for `CN(C)CCn1c(Nc2c[nH]c3ccc(Cl)nc23)nc2ccc(Oc3ccccc3)cc21` [Embodiment 134, N-(5-Chloro-1H-pyrrolo[3,2-b]pyridin-3-yl)-1-[2-(dimethylamino)ethyl]-6-phenoxy-1H-benzo[d] imidazole-2-amine diformate], the IC50 was at least 10 µM.

With `Clc1ccc2[nH]cc(Nc3nc4c(C5CCOCC5)cccc4[nH]3)c2n1` [Embodiment 150, N-(5-chloro-1H-pyrrolo[3,2-b]pyridin-3-yl)-4-(tetrahydro-2H-pyran-4-yl)-1H-benzo[d]imidazole-2-amine], the IC50 is at least 10 µM.

Take `C=Cc1ccc2[nH]cc(Nc3nc4cc(C(F)(F)F)ccc4n3C)c2n1` [Embodiment 171, 1-methyl-5-(trifluoromethyl)-N-(5-vinyl-1H-pyrrolo[3,2-b]pyridin-3-yl)-1H-benzo[d]imidazol-2-amine]: the IC50 lay within 1 to 10 µM.

As for `N#Cc1cccc2[nH]c(Nc3c[nH]c4ccc(Cl)nc34)nc12` [Embodiment 113, 2-[(5-Chloro-1H-pyrrolo[3,2-b]pyridin-3-yl)amino]-1H-benzo [d]imidazole-4-carbonitrile], the IC50 was at least 10 µM.

Consider `Clc1ccc2[nH]cc(Nc3nc4ccccc4[nH]3)c2c1` [Example 15, N-(5-chloro-1H-indol-3-yl)-1H-benzo[d]imidazol-2-amine], for which the IC50 fell in the range of 1 to 10 µM.

For `COCCn1c(Nc2c[nH]c3ccc(Br)nc23)nc2cc(Oc3ccccc3)ccc21` [Embodiment 92, N-(5-bromo-1H-pyrrolo[3,2-b]pyridin-3-yl)-1-(2-methoxyethyl)-5-phenoxy-1H-benzo[d]imidazol-2-amine], the IC50 was in the range of 1 to 10 µM.

Regarding `COCCOc1cc2nc(Nc3c[nH]c4ccc(Cl)nc34)[nH]c2cc1OCCOC` [Embodiment 143, N-(5-Chloro-1H-pyrrolo[3,2-b]pyridin-3-yl)-5,6-bis(2-methoxyethoxy)-1H-benzo[d]imidazol-2-amine], the IC50 is at least 10 µM.

Take `COCCn1c(Nc2c[nH]c3ccc(Cl)nc23)nc2c(C(F)(F)F)cccc21` [Embodiment 167, N-(5-Chloro-1H-pyrrolo[3,2-b]pyridin-3-yl)-1-(2-methoxyethyl)-4-(trifluoromethyl)-1H-benzo[d] imidazole-2-amine]: the IC50 is at least 10 µM.

Regarding `c1ccc(-c2ccc3[nH]cc(Nc4nc5ccccc5[nH]4)c3c2)cc1` [Example 2, N-(5-phenyl-1H-indol-3-yl)-1H-benzo[d]imidazol-2-amine], the IC50 is at least 10 µM.

`CN(C)Cc1cccc(Oc2ccc3[nH]c(Nc4c[nH]c5ccc(Cl)nc45)nc3c2)c1` [Embodiment 81, N-(5-chloro-1H-pyrrolo[3,2-b]pyridin-3-yl)-5-{3-[(dimethylamino)methyl]phenoxy}-1H-benzo [d]imidazole-2-amine formate]: the IC50 is 1 to 10 µM.

For the compound `Brc1cccc2[nH]cc(Nc3nc4ccccc4[nH]3)c12` [Example 9, N-(4-bromo-1H-indol-3-yl)-1H-benzo[d]imidazol-2-amine], the IC50 was at least 10 µM.

As for `Cn1c(Nc2c[nH]c3ccc(Cl)nc23)nc2cc(Cl)ccc21` [Embodiment 172, 5-Chloro-N-(5-chloro-1H-pyrrolo [3,2-b]pyridin-3-yl)-1-methyl-1H-benzo[d]imidazol-2-amine], the IC50 fell in the range of 1 to 10 µM.

For `COc1ccc2nc(Nc3c[nH]c4ccc(Cl)nc34)n(C)c2c1` [Embodiment 161, N-(5-Chloro-1H-pyrrolo[3,2-b]pyridin-3-yl)-6-methoxy-1-methyl-1H-benzo[d]imidazol-2-amine], the IC50 was at least 10 µM.

In the case of `CS(=O)(=O)c1ccccc1Oc1ccc2[nH]c(Nc3c[nH]c4ccc(Br)nc34)nc2c1` [Embodiment 68, N-(5-bromo-1H-pyrrolo[3,2-b]pyridin-3-yl)-5-[2-(methylsulfonyl)phenoxy]-1H-benzo[d]imidazol-2-amine], the IC50 was at least 10 µM.

On to `Cn1ccc(-c2ccnc3c(Nc4nc5cc(Oc6ccccc6)ccc5[nH]4)c[nH]c23)n1` [Embodiment 165, N-[7-(1-methyl-1H-pyrazol-3-yl)-1H-pyrrolo[3,2-b]pyridin-3-yl]-5-phenoxy-1H-benzo[d]imidazole-2-amine], for which the IC50 is 1 to 10 µM.

In the case of `Brc1cc2c(Nc3nc4cc(Oc5ccccc5)ccc4[nH]3)c[nH]c2cn1` [Example 11, N-(5-bromo-1H-pyrrolo[2,3-c]pyridin-3-yl)-5-phenoxy-1H-benzo[d]imidazol-2-amine], the IC50 lay in the range of 1 to 10 µM.

Take `Clc1ccc2[nH]cc(Nc3nc4cc(OC5COC5)ccc4[nH]3)c2n1` [Embodiment 139, N-(5-Chloro-1H-pyrrolo[3,2-b]pyridin-3-yl)-5-(oxetan-3-yloxy)-1H-benzo[d]imidazol-2-amine]: the IC50 is at least 10 µM.

Take `O=[N+]([O-])c1cc2[nH]c(Nc3c[nH]c4ccc(Cl)nc34)nc2cc1F` [Embodiment 177, N-(5-Chloro-1H-pyrrolo[3,2-b]pyridin-3-yl)-5-fluoro-6-nitro-1H-benzo[d]imidazol-2-amine]: the IC50 fell in the range of 1 to 10 µM.

Regarding `C[Si](C)(C)C#Cc1ccc2[nH]cc(Nc3nc4cc(Oc5ccccc5)ccc4[nH]3)c2n1` [Embodiment 106, 5-phenoxy-N-{5-[(trimethylsilyl)ethynyl]-1H-pyrrolo[3,2-b]pyridin-3-yl}-1H-benzo[d]imidazol-2-amine], the IC50 was in the range of 1 to 10 µM.
